The experiment deals with Programmed cell death 1 ligand 1 (Homo sapiens, UniProt Q9NZQ7). Kind of experiment: Inhibition of PD-L1 (unknown origin).

Each structure is given as a SMILES string. pIC50: −log10 of the molar value. Numbered stars: 1 amine (or outer) side, 2 acyl side, 3 side chain; on linkers, the order of the positions; unused ones are H or OH. Bridge positions count the residues as written; N and C are the ends. Square brackets hold non-standard residues; d marks the D form. Peptide text beside a SMILES is read from it. ξ: configuration not given here. X1 = CC(C)C[C@H](N[*:1])C(=O)NC(=O)[*:2]; NMeNle = CCCC[C@H](NC)C(=O)O; NMeA = CN[C@@H](C)C(=O)O; ξP = O=C(O)C1CCCN1; ξC = NC(CS)C(=O)O; Sar = CNCC(=O)O

Chain of Programmed cell death 1 ligand 1 (Q9NZQ7 whole entry): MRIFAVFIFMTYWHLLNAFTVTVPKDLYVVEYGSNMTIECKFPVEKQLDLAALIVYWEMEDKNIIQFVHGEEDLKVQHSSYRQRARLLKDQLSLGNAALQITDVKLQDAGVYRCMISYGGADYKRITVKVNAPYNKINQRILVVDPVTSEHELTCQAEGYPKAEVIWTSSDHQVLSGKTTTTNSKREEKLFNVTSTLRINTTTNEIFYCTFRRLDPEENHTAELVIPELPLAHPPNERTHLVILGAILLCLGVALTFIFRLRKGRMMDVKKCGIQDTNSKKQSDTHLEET

Take `CCCC[C@H]1C(=O)N(C)[C@@H](CCCC)C(=O)N[C@@H](CCCNC(=N)N)C(=O)NC(C(=O)NCC(N)=O)CSCC(=O)N[C@@H](Cc2ccccc2)C(=O)N(C)[C@@H](C)C(=O)N[C@@H](CC(N)=O)C(=O)N2CCCC2C(=O)N[C@@H](CC(C)C)C(=O)NC(=O)N(C)CC(=O)NCC(=O)N[C@@H](Cc2c[nH]c3ccccc23)C(=O)N[C@@H](Cc2c[nH]c3ccccc23)C(=O)N1C` (stereo partly specified) ({CH2CO}-F[NMeA]N[ξP][X1][Sar]GWW[NMeNle][NMeNle]R[ξC]G-NH2; thioether N-13): the negative-log IC50 (pIC50) is 8.28.

Source of the values: ChEMBL document CHEMBL4261578, “Structure-Function Analysis of Immune Checkpoint Receptors to Guide Emerging Anticancer Immunotherapy” (J Med Chem, 2018).
